Our source for the IC50 values is patent publication US11198696B2, “Substituted xanthines as inhibitors of transient receptor potential cation channel subfamily c, member 5 activity” (Boehringer Ingelheim International GmbH, priority 2018, dated 2021).

pIC50: −log10 of the molar value.

The first assay addresses T1, TRPC5 (Homo sapiens, UniProt Q9UL62).
T1 construct: expressed in transfected cells; host or cells: HEK293 TREx cells, inducible TRPC5 expression, induced 20-48 hours
T1 sequence (Q9UL62 1-973): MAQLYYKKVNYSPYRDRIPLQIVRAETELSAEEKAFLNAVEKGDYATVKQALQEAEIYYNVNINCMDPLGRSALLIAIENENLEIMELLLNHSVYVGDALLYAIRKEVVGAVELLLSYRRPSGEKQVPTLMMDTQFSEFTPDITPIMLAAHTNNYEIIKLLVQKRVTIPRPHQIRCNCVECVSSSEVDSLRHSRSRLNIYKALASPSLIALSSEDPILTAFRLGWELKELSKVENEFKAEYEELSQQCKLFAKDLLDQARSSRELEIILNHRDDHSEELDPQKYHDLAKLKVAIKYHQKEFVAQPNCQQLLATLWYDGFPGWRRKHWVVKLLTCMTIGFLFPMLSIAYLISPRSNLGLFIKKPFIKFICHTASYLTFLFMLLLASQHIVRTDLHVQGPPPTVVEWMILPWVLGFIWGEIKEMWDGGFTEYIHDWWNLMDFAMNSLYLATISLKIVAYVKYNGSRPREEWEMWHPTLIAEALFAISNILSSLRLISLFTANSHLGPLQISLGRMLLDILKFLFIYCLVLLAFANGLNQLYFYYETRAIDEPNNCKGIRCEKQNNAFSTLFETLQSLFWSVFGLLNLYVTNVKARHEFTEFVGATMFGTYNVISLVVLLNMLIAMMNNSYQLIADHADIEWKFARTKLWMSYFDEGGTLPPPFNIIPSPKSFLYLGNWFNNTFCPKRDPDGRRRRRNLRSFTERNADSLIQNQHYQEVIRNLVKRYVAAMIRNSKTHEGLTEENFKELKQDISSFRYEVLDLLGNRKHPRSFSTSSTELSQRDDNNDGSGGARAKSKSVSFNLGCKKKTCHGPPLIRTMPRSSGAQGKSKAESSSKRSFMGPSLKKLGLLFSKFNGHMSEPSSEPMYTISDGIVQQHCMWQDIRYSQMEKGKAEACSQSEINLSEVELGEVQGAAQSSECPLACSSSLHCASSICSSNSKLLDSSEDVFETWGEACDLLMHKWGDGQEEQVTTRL
In words: Assay A: Determination of TRPC5-Inhibition (whole-cell patch clamp). The class given is cell-based. The following applies: closest prior art compounds of WO2014/143799, TRPC5-expressing HEK293 TREx cells, LaCl3-activated current. The text has this:
Assay A: Determination of TRPC5-Inhibition
Patch clamp experiments permit the detection of currents through the TRPC5 channel in a cell line. In normal whole-cell patch clamp recordings, a glass electrode is brought into contact with a single cell and a high-resistance (gigaohm) seal is established with the cell membrane. The membrane is then ruptured to achieve the whole-cell configuration, permitting control of the voltage of the cell membrane and measurement of currents flowing across the membrane using the amplifier attached to the electrode and resulting in the replacement of cytoplasm with the pipette solution. A perfusion system permits control of the extracellular solution, including the addition of blockers and activators of the current. The current can be activated by including 1.4 μM free Ca2+ in the pipette (intracellular) solution, and 80 μM LaCl3 in the extracellular solution.
TRPC5 cells were induced 20-48 hours, removed from growth plates, and replated at low density (to attain good single-cell physical separation) on glass coverslips for measurement. In some cases, cells were grown in low density overnight on glass coverslips. Patch clamp recordings were made in the whole-cell mode with a holding potential of −40 mV. Every 5 seconds, a voltage ramp was applied from −120 to +100 mV, 400 ms in duration. Currents elicited were quantified at −80 mV and +80 mV. The internal solution consisted of 140 mM cesium aspartate, 10 mM HEDTA, 2 mM CaCl2, 2.27 mM MgCl2 and 10 mM HEPES, pH 7.2, with 1,400 nM calculated free Ca2+. The external solution consisted of 150 mM NaCl, 4.5 mM 15 KCl, 1 mM MgCl2, 2 mM CaCl2, 10 mM HEPES, 10 mM glucose, 1 mM EGTA, pH 7.4. Upon addition of LaCl3, TRPC5 current was induced only in TRPC5-expressing cells and not in parental HEK293 TREx cells. Removal of the LaCh stimulus causes most of the current to go away. Potential blockers were tested for ability to block both inward and outward currents in the continued presence of LaCl3.
IC50 of a compound of the invention was estimated by testing the compound 500 nM. […] Compounds blocking 50% or more at 500 nM are retested at multiple concentrations, and the % block is fitted by standard equations to determine IC50 accurately, using a 5/6 point concentration-response experiment.
Background: The patch-clamp technique gives a direct electrical read-out from membranes.
A word on the pIC50: it is the negative decadic logarithm of the IC50, by convention in mol/L. Read a high pIC50 as a small IC50. On to `COc1ccc(-c2nc3c(c(=O)n(CCCO)c(=O)n3C)n2Cc2ccccc2)cc1` [Example 441 in WO2014/143799, reference compound], for which the pIC50 is 6.49. On the same count and under the same terms, to `COc1ccc(-c2nc3c(c(=O)n(CCCO)c(=O)n3C)n2Cc2ccc(F)cc2)cc1` [Example 465 in WO2014/143799, reference compound] belongs 7.28.

The assay is the same for the next values; noted with them: compounds of the present invention, TRPC5-expressing HEK293 TREx cells, LaCl3-activated current.
`CCn1c(=O)n(CCCO)c(=O)c2c1nc(-c1ccc(OC3CC(F)(F)C3)nc1C)n2Cc1ccc(F)cc1` [Example 47] gave a pIC50 of 9.07. On the same count and under the same terms, to `CCn1c(=O)n(CCCO)c(=O)c2c1nc(-c1ccc(OC3CCC3)nc1)n2Cc1ccc(Cl)cc1` [Example 48] belongs 9.06. The compound `CCn1c(=O)n(CCCO)c(=O)c2c1nc(-c1ccc(OC3CCC3)nc1)n2Cc1ccc(C2CC2)cc1` [Example 49] had a pIC50 of 9.00. For the compound `CCn1c(=O)n(CCCO)c(=O)c2c1nc(-c1ccc(OC3CCC3)nc1C)n2Cc1ccc(F)cc1` [Example 50], the negative-log IC50 (pIC50) is 8.93. Still for that read-out and setting: to `CCn1c(=O)n(CCCO)c(=O)c2c1nc(-c1ccc(OC3CCC3C)nc1)n2Cc1ccc(F)cc1` (centres unmarked) [Example 51] belongs 8.87; to `CCn1c(=O)n(CCCO)c(=O)c2c1nc(-c1ccc(OC3CCC3)nc1C)n2Cc1ccccc1` [Example 52], 8.80.

As to `CCn1c(=O)n(CCCO)c(=O)c2c1nc(-c1ccc(OC3CCC3)nc1)n2Cc1ccc(Cl)cc1F` [Example 53], the negative logarithm of the IC50 (pIC50) is 8.80. The compound `CCn1c(=O)n(CCCO)c(=O)c2c1nc(-c1ccc(OC3CCC3)nc1)n2Cc1ccc(C(F)(F)F)cc1` [Example 54] gave a pIC50 of 8.80. Turning to `CCn1c(=O)n(CCCO)c(=O)c2c1nc(-c1ccc(OC3CCC3)nc1)n2Cc1ccc(C)cc1` [Example 55], the pIC50 was 8.67. With `CCn1c(=O)n(CCCO)c(=O)c2c1nc(-c1ccc(OC3CCC3)nc1)n2Cc1ccc(F)c(F)c1` [Example 56], the negative logarithm of the IC50 (pIC50) is 8.58. Still for that read-out and setting: the result for `C#Cc1ccc(Cn2c(-c3ccc(OC4CCC4)nc3)nc3c2c(=O)n(CCCO)c(=O)n3CC)cc1` [Example 57] reads 8.57; that for `CCn1c(=O)n(CCCO)c(=O)c2c1nc(-c1ccc(OC3CCC3)nc1)n2Cc1cc(F)cc(F)c1` [Example 58], 8.44.

In turn, `CCn1c(=O)n(CCCO)c(=O)c2c1nc(-c1ccc(OC3C[C@@H]4C[C@@H]4C3)nc1C)n2Cc1ccc(F)cc1` (some centres unmarked) [Example 59] showed a pIC50 of 8.76. On the same count and under the same terms, the result for `CCn1c(=O)n(CCCO)c(=O)c2c1nc(-c1ccc(OC3CCC3C)nc1C)n2Cc1ccccc1` (centres unmarked) [Example 60] reads 8.68; that for `CCn1c(=O)n(CCCO)c(=O)c2c1nc(-c1ccc(OC3CCCC3)nc1C)n2Cc1ccccc1` [Example 61], 8.62; that for `CCn1c(=O)n(CCCO)c(=O)c2c1nc(-c1ccc(OC3CCC3)nc1F)n2Cc1ccc(F)cc1` [Example 62], 8.47. In the case of `CCn1c(=O)n(CCCO)c(=O)c2c1nc(-c1ccc(OC3CCC3C)nc1)n2Cc1ccccc1` (centres unmarked) [Example 63], the pIC50 was 8.50. The pIC50 values of the last two compounds are within 0.2 log units of each other. On the same count and under the same terms, to `CCn1c(=O)n(CCCO)c(=O)c2c1nc(-c1ccc(OC3CCC3)nc1)n2Cc1ccc(F)cc1` [Example 64] belongs 8.57.
